Data on seven molecules can be found in the supplement of paper PMC11061612.

Holding throughout (test): Bliss excess, mean over the matrix (fraction); higher = more synergy
The test system of assay [1] is NCI-H441 (Lung Adenocarcinoma). An outline of the steps: (§1)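 After 24 hours at 37°C and 5% CO2 in 1536-well plates, cells in DMEM/F12 or RPMI plus 10% FBS received two-drug dose matrices for 72 hours. Viability came from CellTiter-Glo 2.0 luminescence and was scaled as inhibition, anchored at 0 by vehicle wells and at 1 by blank wells. Combination Emax is taken as the second-highest inhibition in the matrix, and Bliss excess as the observed combination effect less EA + EB − EA·EB, with EA and EB the single-agent effects.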

In assay [2] the test system is NCI-H2228 (Lung Adenocarcinoma). In outline: as §1
The next assay concerns KP-N-YN (Neuroblastoma). In outline: as §1
In assay [3] the test system is LU-165 (Small Cell Lung Carcinoma). An outline of the steps: as §1
Assay [4] deals with NCI-H1703 (Squamous Cell Lung Carcinoma). In outline: as §1
The subject of assay [5] is huH-1 (Hepatocellular Carcinoma). In outline:
as §1

Assay [6] concerns LS-411N (Colorectal Carcinoma). An outline of the steps:
as §1

In assay [7] the test system is UACC-812 (Breast Carcinoma). An outline of the steps:
as §1

The test system of assay [8] is KYSE-140 (Esophageal Squamous Cell Carcinoma). An outline of the steps: as §1
Assay [9] concerns MHH-ES-1 (Ewing's Sarcoma). An outline of the steps: as §1
The subject of assay [10] is Jurkat (T-Lymphoblastic Leukemia). In outline:
as §1

Assay [11] has as its system ESO26 (Esophageal Adenocarcinoma). An outline of the steps:
as §1

In assay [12] the test system is G-402 (Other Solid Carcinomas). In outline:
as §1

Another assay relates to WM1552C (Melanoma). An outline of the steps: as §1
The next assay concerns RH-41 (Rhabdomyosarcoma). In outline:
as §1

Assay [13] has as its system OACp4C (Esophageal Adenocarcinoma). In outline:
as §1

Assay [14] concerns A2780 (Ovarian Carcinoma). In outline: as §1
The test system of assay [15] is CA46 (Burkitt's Lymphoma). An outline of the steps:
as §1

In a further assay the test system is A204 (Rhabdomyosarcoma). In outline: as §1
Assay [16] concerns MDA-MB-436 (Breast Carcinoma). In outline: as §1

On to `COc1cccc(OCCCN)c1-c1cc(Nc2cnc(C#N)cn2)n[nH]1` [Prexasertib] + CN(C)CCCOc1ccc(-c2ccc3ncc4c(c3c2)n(C2CCOCC2)c(=O)n4C)cn1 [AZD0156] (first compound max 1 µM, 7x7, partner max 1 µM), for which the Bliss excess in [1] was -0.0994; in assay [2], -0.0488; in the assay on KP-N-YN (Neuroblastoma) it was 0.0202; in [3], -0.0723; in [4], -0.0295; in assay [5], -0.0422. For the same molecule, the Bliss excess is -0.0336 in assay [6]; -0.0324 in [7]; -0.0129 in assay [8]; 0.0004 in assay [9]; -0.0264 in [10]; 0.0207 in [11]. Moreover, the Bliss excess in [12] was 0.0003; in the assay on WM1552C (Melanoma), -0.0036; with RH-41 (Rhabdomyosarcoma), -0.0209; in assay [13], -0.0162; in [14], 0.0127; in assay [15] it was 0.0713. Also, the Bliss excess in the assay with A204 (Rhabdomyosarcoma) is -0.018; in [16], -0.0428.

For `COc1cccc(OCCCN)c1-c1cc(Nc2cnc(C#N)cn2)n[nH]1` [Prexasertib] + C[C@@H]1COCCN1C2=NC(=NC(=C2)C3(CC3)[S@](=N)(=O)C)C4=C5C=CNC5=NC=C4 [AZD6738] (first compound max 1 µM, 7x7, partner max 10 µM), the Bliss excess in assay [1] is 0.0009; in assay [2] it was -0.0434; in the assay with KP-N-YN (Neuroblastoma) it was -0.0048; in assay [3] it was -0.0402; in [4] it was 0.0047; in assay [5], -0.0716. Also, the Bliss excess in assay [6] was -0.0349; in assay [7], 0.049; in assay [8], -0.0191; in assay [9] it was -0.0161; in [10] it was -0.0076; in [11], -0.0681. In addition, the Bliss excess in assay [12] was -0.0253; in the assay with WM1552C (Melanoma) it was -0.0372; in the assay on RH-41 (Rhabdomyosarcoma), -0.0423; in assay [13], -0.0882; in [14], -0.0173; in assay [15] it was -0.0755. Further, the Bliss excess in the assay on A204 (Rhabdomyosarcoma) is -0.0542; in [16] it was 0.0051.

For `COc1cccc(OCCCN)c1-c1cc(Nc2cnc(C#N)cn2)n[nH]1` [Prexasertib] + Cc1cc2ncnn2cc1Nc1ncc2c(n1)n(C1CCOCC1)c(=O)n2C [AZD7648] (first compound max 1 µM, 7x7, partner max 10 µM), the Bliss excess was 0.0071 in assay [1]; -0.0487 in [2]; -0.0221 with KP-N-YN (Neuroblastoma); -0.0422 in assay [3]; -0.0192 in assay [4]; -0.0226 in [5]. Further, the Bliss excess in assay [6] is -0.0082; in assay [7], -0.0402; in assay [8], -0.0066; in [9] it was -0.004; in assay [10], -0.0008; in [11], 0.0142. The Bliss excess in assay [12] was -0.0602; in the assay on WM1552C (Melanoma) it was -0.0385; with RH-41 (Rhabdomyosarcoma), -0.0453; in [13] it was 0.0093; in assay [14], 0.0097; in [15] it was -0.0182. Besides, the Bliss excess in the assay on A204 (Rhabdomyosarcoma) was -0.091; in assay [16] it was -0.0552.

Take `COc1cccc(OCCCN)c1-c1cc(Nc2cnc(C#N)cn2)n[nH]1` [Prexasertib] + O=C(c1cc(Cc2n[nH]c(=O)c3ccccc23)ccc1F)N1CCN(C(=O)C2CC2)CC1 [Olaparib] (first compound max 1 µM, 7x7, partner max 10 µM): the Bliss excess in assay [1] is -0.101; in assay [2] it was -0.0834; in the assay on KP-N-YN (Neuroblastoma) it was -0.245; in [3], -0.128; in assay [4], -0.0537; in assay [5], 0.0434. Further, the Bliss excess in [6] was -0.271; in assay [7], -0.0395; in assay [8], -0.152; in [9], 0.0048; in [10], -0.0054; in [11] it was -0.0191. The Bliss excess was -0.0572 in [12]; -0.134 with WM1552C (Melanoma); -0.061 with RH-41 (Rhabdomyosarcoma); -0.0222 in [13]; -0.0298 in assay [14]; -0.192 in [15]. For the same molecule, the Bliss excess in the assay on A204 (Rhabdomyosarcoma) was -0.0675; in assay [16] it was 0.0035.

As to `CCc1c2c(nc3ccc(O)cc13)-c1cc3c(c(=O)n1C2)COC(=O)[C@]3(O)CC` [SN-38] + CN(C)CCCOc1ccc(-c2ccc3ncc4c(c3c2)n(C2CCOCC2)c(=O)n4C)cn1 [AZD0156] (first compound max 0.3 µM, 7x7, partner max 1 µM), the Bliss excess in [1] was -0.0052; in assay [2], 0.0587; in the assay with KP-N-YN (Neuroblastoma) it was 0.0238; in assay [3], -0.028; in assay [4] it was 0.0117; in assay [5], 0.0502. For the same molecule, the Bliss excess in [6] is 0.0079; in assay [7] it was 0.034; in [8], 0.0176; in assay [9] it was 0.0449; in assay [10] it was 0.059; in assay [11] it was -0.0042. Further, the Bliss excess in assay [12] was 0.003; in the assay with WM1552C (Melanoma) it was 0.0013; in the assay on RH-41 (Rhabdomyosarcoma), -0.0913; in assay [13], 0.0666; in [14], -0.0099; in [15], 0.0951. Further, the Bliss excess in the assay with A204 (Rhabdomyosarcoma) was 0.0736; in [16], 0.0033.

`Cn1cnc2c(F)c(Nc3ccc(Br)cc3Cl)c(C(=O)NOCCO)cc21` [Selumetinib] + C=CCn1c(=O)c2cnc(Nc3ccc(N4CCN(C)CC4)cc3)nc2n1-c1cccc(C(C)(C)O)n1 [AZD1775] (first compound max 10 µM, partner max 1 µM): the Bliss excess in assay [1] was 0.0069; in assay [2] it was -0.0613; in the assay on KP-N-YN (Neuroblastoma), -0.0751; in assay [3], -0.0589; in assay [4], -0.0612; in assay [5] it was -0.116. The Bliss excess in assay [6] was -0.0554; in assay [7], -0.0425; in assay [8], -0.0514; in assay [9] it was -0.0733; in [10] it was -0.0309; in [11], -0.0853. The Bliss excess is -0.073 in assay [12]; -0.0674 in the assay on WM1552C (Melanoma); -0.0189 in the assay with RH-41 (Rhabdomyosarcoma); -0.0357 in [13]; -0.0352 in assay [14]; -0.0625 in [15]. Besides, the Bliss excess with A204 (Rhabdomyosarcoma) is -0.0511; in assay [16], -0.0002.

In the case of `Cn1cnc2c(F)c(Nc3ccc(Br)cc3Cl)c(C(=O)NOCCO)cc21` [Selumetinib] + CC(C)n1c(=O)n(C)c2cnc3cc(F)c(-c4ccc(OCCCN5CCCCC5)nc4)cc3c21 [AZD1390] (first compound max 10 µM, 7x7, partner max 0.3 µM), the Bliss excess in [1] was -0.0394; in assay [2] it was -0.0477; in the assay on KP-N-YN (Neuroblastoma), -0.0171; in assay [3] it was -0.03; in assay [4], -0.0158; in [5] it was -0.0349. Also, the Bliss excess in assay [6] was -0.0107; in [7] it was -0.0436; in assay [8], -0.0337; in assay [9] it was -0.0328; in [10], -0.0321; in [11] it was -0.0471. Also, the Bliss excess was -0.0095 in assay [12]; -0.0102 in the assay with WM1552C (Melanoma); -0.0082 in the assay on RH-41 (Rhabdomyosarcoma); 0.0048 in assay [13]; -0.0369 in [14]; -0.006 in assay [15]. The values for the Bliss excess (with A204 (Rhabdomyosarcoma); in [16]) were -0.0567 and -0.0394, respectively.
